Values of other authors, collected in patent US6656473B2, “Tryptophan source from plants and uses thereof” (priority 2000, dated 2003).

Target: plasma albumin (Homo sapiens, UniProt P02768)
Conditions: after absorption

Sequence of plasma albumin (P02768 25-609): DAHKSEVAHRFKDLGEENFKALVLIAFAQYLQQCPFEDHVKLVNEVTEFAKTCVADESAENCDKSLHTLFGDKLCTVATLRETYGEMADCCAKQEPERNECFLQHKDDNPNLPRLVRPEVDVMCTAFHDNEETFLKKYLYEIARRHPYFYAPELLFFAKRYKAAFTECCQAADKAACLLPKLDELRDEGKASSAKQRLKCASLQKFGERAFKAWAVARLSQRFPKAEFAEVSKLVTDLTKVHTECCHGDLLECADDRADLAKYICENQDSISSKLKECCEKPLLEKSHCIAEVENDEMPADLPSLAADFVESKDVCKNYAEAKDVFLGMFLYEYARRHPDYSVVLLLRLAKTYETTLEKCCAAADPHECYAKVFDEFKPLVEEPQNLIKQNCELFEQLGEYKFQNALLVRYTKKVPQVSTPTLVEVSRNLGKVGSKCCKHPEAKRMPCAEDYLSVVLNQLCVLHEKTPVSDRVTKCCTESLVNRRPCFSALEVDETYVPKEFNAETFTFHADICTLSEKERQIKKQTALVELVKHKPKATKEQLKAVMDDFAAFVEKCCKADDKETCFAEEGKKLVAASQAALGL

## N[C@@H](Cc1c[nH]c2ccccc12)C(=O)O [tryptophan]
  Share circulating as free tryptophan: 20%
  Share circulating in the blood bound to plasma albumin: approximately 80%
